Assay results reported in patent publication US10582709B2, “Butyrolactones as herbicides” (FMC Corporation, priority 2015, dated 2020).

How the values were obtained:
Type in all cases: in vivo
[1] = system: barnyardgrass (Echinochloa crus-galli); experiment: Test B flooded paddy test, barnyardgrass; settings: applied to paddy water at 2-leaf stage, 13 to 15 d, scale 0 no effect to 100 complete control
Experimental: (§1) Plant species in the flooded paddy test selected from rice (Oryza sativa), sedge, umbrella (small-flower umbrella sedge, Cyperus difformis), ducksalad (Heteranthera limosa), and barnyardgrass (Echinochloa crus-galli) were grown to the 2-leaf stage for testing. At time of treatment, test pots were flooded to 3 cm above the soil surface, treated by application of test compounds directly to the paddy water, and then maintained at that water depth for the duration of the test. Treated plants and controls were maintained in a greenhouse for 13 to 15 d, after which time all species were compared to controls and visually evaluated. Plant response ratings, summarized in Table B, are based on a scale of 0 to 100 where 0 is no effect and 100 is complete control. A dash (-) response means no test result.

[2] = system: ducksalad (Heteranthera limosa); experiment: Test B flooded paddy test, ducksalad; settings: applied to paddy water at 2-leaf stage, 13 to 15 d, scale 0 no effect to 100 complete control
Experimental: as §1

rice (Oryza sativa) = experiment: Test B flooded paddy test, rice; settings: applied to paddy water at 2-leaf stage, 13 to 15 d, scale 0 no effect to 100 complete control
Experimental: as §1

[3] = system: sedge, umbrella (small-flower umbrella sedge, Cyperus difformis); experiment: Test B flooded paddy test, umbrella sedge; settings: applied to paddy water at 2-leaf stage, 13 to 15 d, scale 0 no effect to 100 complete control
Experimental: as §1

[4] = system: barnyardgrass (Echinochloa crus-galli); experiment: Test A preemergence, barnyardgrass; settings: visual rating after approx. 10 d, 0 to 100 scale, 0 no effect, 100 complete control
Description: (§2) Seeds of plant species selected from barnyardgrass (Echinochloa crus-galli), crabgrass (large crabgrass, Digitaria sanguinalis), kochia (Kochia scoparia), ragweed (common ragweed, Ambrosia elatior), morningglory (Ipomoea spp.), velvetleaf (Abutilon theophrasti), ryegrass, Italian (Italian ryegrass, Lolium multiflorum), foxtail, giant (giant foxtail, Setaria faberii), wheat (Triticum aestivum), corn (Zea mays), and pigweed (Amaranthus retroflexus), were planted into a blend of loam soil and sand and treated preemergence with a directed soil spray using test chemicals formulated in a non-phytotoxic solvent mixture which included a surfactant. At the same time, plants selected from these crop and weed species and also blackgrass (Alopecurus myosuroides), and galium (catchweed bedstraw, Galium aparine), were planted in pots containing the same blend of loam soil and sand and treated with postemergence applications of test chemicals formulated in the same manner. Plants ranged in height from 2 to 10 cm and were in the one- to two-leaf stage for the postemergence treatment. Treated plants and untreated controls were maintained in a greenhouse for approximately 10 d, after which time all treated plants were compared to untreated controls and visually evaluated for injury. Plant response ratings, summarized in Table A, are based on a 0 to 100 scale where 0 is no effect and 100 is complete control. A dash (-) response means no test result.

kochia (Kochia scoparia) [5] = experiment: Test A preemergence, kochia; settings: visual rating after approx. 10 d, 0 to 100 scale, 0 no effect, 100 complete control
Description: as §2

[6] = system: ragweed (common ragweed, Ambrosia elatior); experiment: Test A preemergence, ragweed; settings: visual rating after approx. 10 d, 0 to 100 scale, 0 no effect, 100 complete control
Description: as §2

[7] = system: ryegrass, Italian (Italian ryegrass, Lolium multiflorum); experiment: Test A preemergence, Italian ryegrass; settings: visual rating after approx. 10 d, 0 to 100 scale, 0 no effect, 100 complete control
Description: as §2

[8] = system: foxtail, giant (giant foxtail, Setaria faberii); experiment: Test A preemergence, giant foxtail; settings: visual rating after approx. 10 d, 0 to 100 scale, 0 no effect, 100 complete control
Description: as §2

[9] = system: pigweed (Amaranthus retroflexus); experiment: Test A preemergence, pigweed; settings: visual rating after approx. 10 d, 0 to 100 scale, 0 no effect, 100 complete control
Description: as §2

[10] = system: barnyardgrass (Echinochloa crus-galli); experiment: Test A postemergence, barnyardgrass; settings: visual rating after approx. 10 d, 0 to 100 scale, 0 no effect, 100 complete control
Description: as §2

kochia (Kochia scoparia) [11] = experiment: Test A postemergence, kochia; settings: visual rating after approx. 10 d, 0 to 100 scale, 0 no effect, 100 complete control
Description: as §2

[12] = system: ragweed (common ragweed, Ambrosia elatior); experiment: Test A postemergence, ragweed; settings: visual rating after approx. 10 d, 0 to 100 scale, 0 no effect, 100 complete control
Description: as §2

[13] = system: ryegrass, Italian (Italian ryegrass, Lolium multiflorum); experiment: Test A postemergence, Italian ryegrass; settings: visual rating after approx. 10 d, 0 to 100 scale, 0 no effect, 100 complete control
Description: as §2

[14] = system: foxtail, giant (giant foxtail, Setaria faberii); experiment: Test A postemergence, giant foxtail; settings: visual rating after approx. 10 d, 0 to 100 scale, 0 no effect, 100 complete control
Description: as §2

[15] = system: wheat (Triticum aestivum); experiment: Test A postemergence, wheat; settings: visual rating after approx. 10 d, 0 to 100 scale, 0 no effect, 100 complete control
Description: as §2

corn (Zea mays) = experiment: Test A postemergence, corn; settings: visual rating after approx. 10 d, 0 to 100 scale, 0 no effect, 100 complete control
Description: as §2

[16] = system: pigweed (Amaranthus retroflexus); experiment: Test A postemergence, pigweed; settings: visual rating after approx. 10 d, 0 to 100 scale, 0 no effect, 100 complete control
Description: as §2

[17] = system: blackgrass (Alopecurus myosuroides); experiment: Test A postemergence, blackgrass; settings: visual rating after approx. 10 d, 0 to 100 scale, 0 no effect, 100 complete control
Description: as §2

[18] = system: galium (catchweed bedstraw, Galium aparine); experiment: Test A postemergence, galium; settings: visual rating after approx. 10 d, 0 to 100 scale, 0 no effect, 100 complete control
Description: as §2

| Compound | Plant response rating, Barnyardgrass ([10]; 125 g ai/ha) | Plant response rating, Barnyardgrass ([10]; 500 g ai/ha) | Plant response rating, Kochia (kochia (Kochia scoparia) [11]; 125 g ai/ha) | Plant response rating, Kochia (kochia (Kochia scoparia) [11]; 500 g ai/ha) | Plant response rating, Ragweed ([12]; 125 g ai/ha) | Plant response rating, Ragweed ([12]; 500 g ai/ha) | Plant response rating, Ryegrass, Italian ([13]; 125 g ai/ha) | Plant response rating, Ryegrass, Italian ([13]; 500 g ai/ha) | Plant response rating, Foxtail, Giant ([14]; 125 g ai/ha) | Plant response rating, Foxtail, Giant ([14]; 500 g ai/ha) | Plant response rating, Wheat ([15]; 125 g ai/ha) | Plant response rating, Wheat ([15]; 500 g ai/ha) | Plant response rating, Corn (corn (Zea mays); 125 g ai/ha) | Plant response rating, Corn (corn (Zea mays); 500 g ai/ha) | Plant response rating, Pigweed ([16]; 125 g ai/ha) | Plant response rating, Pigweed ([16]; 500 g ai/ha) | Plant response rating, Blackgrass ([17]; 125 g ai/ha) | Plant response rating, Blackgrass ([17]; 500 g ai/ha) | Plant response rating, Galium ([18]; 125 g ai/ha) | Plant response rating, Galium ([18]; 500 g ai/ha) | further results |
| --- | --- | --- | --- | --- | --- | --- | --- | --- | --- | --- | --- | --- | --- | --- | --- | --- | --- | --- | --- | --- | --- |
| O=C(Nc1ccccc1C(F)(F)F)C1C(=O)OCC1c1cccc(C(F)(F)F)c1 (racemic) [Compound 14] | 0 | 20 | 0 | 0 | 0 | 0 | 0 | 0 | 20 | 70 | 0 | 0 | 0 | 0 | 0 | 0 | 0 | 30 | 0 | 30 | Plant response rating, Flood, Barnyardgrass ([1]; 500 g ai/ha): 0; Plant response rating, Flood, Ducksalad ([2]; 500 g ai/ha): 0; Plant response rating, Flood, Rice (rice (Oryza sativa); 500 g ai/ha): 0; Plant response rating, Flood, Sedge, Umbrella ([3]; 500 g ai/ha): 0; Plant response rating, Barnyardgrass ([4]; 125 g ai/ha): 20; Plant response rating, Barnyardgrass ([4]; 500 g ai/ha): 20; Plant response rating, Kochia (kochia (Kochia scoparia) [5]; 125 g ai/ha): 0; Plant response rating, Kochia (kochia (Kochia scoparia) [5]; 500 g ai/ha): 20; Plant response rating, Ragweed ([6]; 125 g ai/ha): 0; Plant response rating, Ragweed ([6]; 500 g ai/ha): 0; Plant response rating, Ryegrass, Italian ([7]; 125 g ai/ha): 0; Plant response rating, Ryegrass, Italian ([7]; 500 g ai/ha): 20; Plant response rating, Foxtail, Giant ([8]; 125 g ai/ha): 70; Plant response rating, Foxtail, Giant ([8]; 500 g ai/ha): 90; Plant response rating, Pigweed ([9]; 125 g ai/ha): 0; Plant response rating, Pigweed ([9]; 500 g ai/ha): 0 |
| O=C(Nc1ccccc1F)C1C(=O)OCC1c1ccc(F)c(C(F)(F)F)c1 (racemic) [Compound 16] | 20 | 50 | 0 | 0 | 0 | 0 | 0 | 0 | 20 | 40 | 0 | 0 | 0 | 0 | 0 | 0 | 0 | 0 | 0 | 0 | Plant response rating, Flood, Barnyardgrass ([1]; 500 g ai/ha): 0; Plant response rating, Flood, Ducksalad ([2]; 500 g ai/ha): 0; Plant response rating, Flood, Rice (rice (Oryza sativa); 500 g ai/ha): 0; Plant response rating, Flood, Sedge, Umbrella ([3]; 500 g ai/ha): 0; Plant response rating, Barnyardgrass ([4]; 125 g ai/ha): 30; Plant response rating, Barnyardgrass ([4]; 500 g ai/ha): 60; Plant response rating, Kochia (kochia (Kochia scoparia) [5]; 125 g ai/ha): 0; Plant response rating, Kochia (kochia (Kochia scoparia) [5]; 500 g ai/ha): 0; Plant response rating, Ragweed ([6]; 125 g ai/ha): 0; Plant response rating, Ragweed ([6]; 500 g ai/ha): 0; Plant response rating, Ryegrass, Italian ([7]; 125 g ai/ha): 0; Plant response rating, Ryegrass, Italian ([7]; 500 g ai/ha): 0; Plant response rating, Foxtail, Giant ([8]; 125 g ai/ha): 50; Plant response rating, Foxtail, Giant ([8]; 500 g ai/ha): 80; Plant response rating, Pigweed ([9]; 125 g ai/ha): 0; Plant response rating, Pigweed ([9]; 500 g ai/ha): 0 |
| O=C(Nc1ccccc1C(F)(F)F)C1C(=O)OCC1c1ccc(C(F)(F)F)cc1 (racemic) [Compound 9] | 0 | 0 | 0 | 0 | 0 | 0 | 0 | 0 | 30 | 70 | 0 | 0 | 0 | 0 | 0 | 0 | 0 | 0 | 0 | 0 | Plant response rating, Flood, Barnyardgrass ([1]; 250 g ai/ha): 0; Plant response rating, Flood, Barnyardgrass ([1]; 1000 g ai/ha): 0; Plant response rating, Flood, Ducksalad ([2]; 250 g ai/ha): 30; Plant response rating, Flood, Ducksalad ([2]; 1000 g ai/ha): 30; Plant response rating, Flood, Rice (rice (Oryza sativa); 250 g ai/ha): 0; Plant response rating, Flood, Rice (rice (Oryza sativa); 1000 g ai/ha): 0; Plant response rating, Flood, Sedge, Umbrella ([3]; 250 g ai/ha): 0; Plant response rating, Flood, Sedge, Umbrella ([3]; 1000 g ai/ha): 0; Plant response rating, Barnyardgrass ([4]; 125 g ai/ha): 0; Plant response rating, Barnyardgrass ([4]; 500 g ai/ha): 0; Plant response rating, Kochia (kochia (Kochia scoparia) [5]; 125 g ai/ha): 0; Plant response rating, Kochia (kochia (Kochia scoparia) [5]; 500 g ai/ha): 20; Plant response rating, Ragweed ([6]; 125 g ai/ha): 0; Plant response rating, Ragweed ([6]; 500 g ai/ha): 0; Plant response rating, Ryegrass, Italian ([7]; 125 g ai/ha): 0; Plant response rating, Ryegrass, Italian ([7]; 500 g ai/ha): 20; Plant response rating, Foxtail, Giant ([8]; 125 g ai/ha): 30; Plant response rating, Foxtail, Giant ([8]; 500 g ai/ha): 80; Plant response rating, Pigweed ([9]; 125 g ai/ha): 0; Plant response rating, Pigweed ([9]; 500 g ai/ha): 0 |
| CC1(C(=O)Nc2ccccc2C(F)(F)F)C(=O)OCC1c1ccc(F)cc1 (racemic) [Compound 21] | 0 | 30 | 0 | 0 | 0 | 40 | 0 | 0 | 0 | 0 | 0 | 0 | 0 | 0 | 0 | 0 | 0 | 30 | 0 | 30 | Plant response rating, Flood, Barnyardgrass ([1]; 250 g ai/ha): 90; Plant response rating, Flood, Ducksalad ([2]; 250 g ai/ha): 90; Plant response rating, Flood, Rice (rice (Oryza sativa); 250 g ai/ha): 30; Plant response rating, Flood, Sedge, Umbrella ([3]; 250 g ai/ha): 0 |
| CC1(C(=O)Nc2cccc(F)c2F)C(=O)OCC1c1ccc(F)cc1 (racemic) [Compound 22] | 90 | – | 0 | – | 0 | – | 20 | – | 60 | – | 0 | – | 0 | – | 0 | – | 0 | – | 20 | – | Plant response rating, Flood, Barnyardgrass ([1]; 250 g ai/ha): 0; Plant response rating, Flood, Ducksalad ([2]; 250 g ai/ha): 0; Plant response rating, Flood, Rice (rice (Oryza sativa); 250 g ai/ha): 20; Plant response rating, Flood, Sedge, Umbrella ([3]; 250 g ai/ha): 0; Plant response rating, Barnyardgrass ([10]; 31 g ai/ha): 40; Plant response rating, Kochia (kochia (Kochia scoparia) [11]; 31 g ai/ha): 0; Plant response rating, Ragweed ([12]; 31 g ai/ha): 0; Plant response rating, Ryegrass, Italian ([13]; 31 g ai/ha): 20; Plant response rating, Foxtail, Giant ([14]; 31 g ai/ha): 30; Plant response rating, Wheat ([15]; 31 g ai/ha): 0; Plant response rating, Corn (corn (Zea mays); 31 g ai/ha): 0; Plant response rating, Pigweed ([16]; 31 g ai/ha): 0; Plant response rating, Blackgrass ([17]; 31 g ai/ha): 0; Plant response rating, Galium ([18]; 31 g ai/ha): 0 |
